Values of other authors, collected in patent publication US12553008B2, “Extracting and refining plant cuticular waxes from aqueous dispersion using temperature and pH adjustment” (JENA TRADING APS, priority 2019, dated 2026).
Like-named read-outs stand apart in the source and are kept apart here.

What was measured:
[1] = not given; remark: listed apart in the source

SMILES | pKa | Solubility of free fatty acids in water ([1]; at 30° C.) [mg/L at 30 °C] | also measured
CCCCCCCCCCCC(=O)O [Lauric (C12 saturated), Lauric] | 5.3 | 63 | Solubility of free fatty acids in water ([1]; at 45° C.): 72 mg/L at 45 °C
CCCCCCCCCCCCCC(=O)O [Myristic (C14 saturated), Myristic] | 4.9 | 24 | Solubility of free fatty acids in water ([1]; at 60° C.): 33 mg/L at 60 °C
CCCCCCCC/C=C\CCCCCCCC(=O)O [Oleic (C18 mono-unsaturated), oleic acid] | – | – | Solubility of free fatty acids in water ([1]; in words, no temperature printed): Insoluble; Solubility of free fatty acids in water ([1]; in words, no temperature printed, listed as oleic): very low
CCCCCCCCCCCCCCCC(=O)O [Palmitic (C16 saturated), Palmitic] | 4.75 | – | –
CCCCCCCCCCCCCCCCCC(=O)O [Stearic (C18 saturated), Stearic] | 4.8-4.9 | – | –
